Series [1] deals with Enterococcus faecalis-S613 HM-334. Nature of the series: MIC in presence of 4% human serum albumin. It counts as cell-based. The following applies: Enterococcus; TSB supplemented with 4% human serum albumin; read-out: MIC. Here is the method:
The minimum inhibitory concentrations (MICs) of CAIs were tested against vancomycin resistant Enterococcus faecalis—S613 HM 334 strain as per the guidelines provided by the Clinical and Laboratory Standards Institute (CLSI). The selected strain was streaked on Tryptic Soy Agar (TSA) plate and let grow for 24 hours at 37° C. Afterwards, a bacterial solution equivalent to 0.5 McFarland standard was prepared and diluted in tryptone soy broth (TSB) supplemented with 4% human serum albumin (HAS) to achieve a bacterial concentration of about 5×10^5 CFU/mL and seeded in 96-well well plates. Compounds and control drugs were added in the first row of the 96-well plates and serially diluted along the plates. Plates were then incubated aerobically at 37° C. for 18-20 hours. MICs reported in table (6) are the minimum concentration of the compounds/control drugs that could inhibit completely the visual growth of the bacteria.

Series [2] concerns Enterococcus faecalis—S613 HM-334. Nature of the series: MIC of CAIs in BHIB and TSB. It counts as cell-based. The following applies: Enterococcus, read-out: MIC. Here is the method:
The minimum inhibitory concentrations (MICs) of CAIs were tested against clinical isolates of vancomycin sensitive and vancomycin resistant Enterococci strains as per the guidelines provided by the Clinical and Laboratory Standards Institute (CLSI). The selected strains of Enterococci were streaked on Tryptic Soy Agar (TSA) plates and let grow for 24 hours at 37° C. Afterwards, a bacterial solution equivalent to 0.5 McFarland standard was prepared and diluted in tryptone soy broth (TSB) or brain heart infusion broth (BHIB) to achieve a bacterial concentration of about 5×10^5 CFU/mL and seeded in 96-well well plates. Compounds and control drugs were added in the first row of the 96-well plates and serially diluted along the plates. Plates were then incubated aerobically at 37° C. for 18-20 hours. MICs reported in Table 5 are the minimum concentration of the compounds/control drugs that could inhibit completely the visual growth of the bacteria. The MIC values of CAIs against the tested VRE strains were higher in BHIB than in TSB. This may be due to binding of these drugs to proteins. […] They inhibited the VRE strains at MIC values ranging from 1 to 4 μg/mL.

For series [3], the system named is Enterococcus faecium Patient #2-1-NR-31909. Nature of the series: MIC of CAIs in BHIB and TSB. The settings on record: Enterococcus faecium, read-out: MIC. In kind it is cell-based. On the procedure: (§1) The minimum inhibitory concentrations (MICs) of CAIs were tested against clinical isolates of vancomycin sensitive and vancomycin resistant Enterococci strains as per the guidelines provided by the Clinical and Laboratory Standards Institute (CLSI). The selected strains of Enterococci were streaked on Tryptic Soy Agar (TSA) plates and let grow for 24 hours at 37° C. Afterwards, a bacterial solution equivalent to 0.5 McFarland standard was prepared and diluted in tryptone soy broth (TSB) or brain heart infusion broth (BHIB) to achieve a bacterial concentration of about 5×10^5 CFU/mL and seeded in 96-well well plates. Compounds and control drugs were added in the first row of the 96-well plates and serially diluted along the plates. Plates were then incubated aerobically at 37° C. for 18-20 hours. MICs reported in Table 5 are the minimum concentration of the compounds/control drugs that could inhibit completely the visual growth of the bacteria.

Series [4] has as its system Enterococcus fecalis Strain SF 24397 NR31970. Description: MIC of CAIs in BHIB and TSB. In kind it is cell-based. The following applies: Enterococcus, read-out: MIC. On the procedure: as §1
For series [5], the system named is Enterococcus faecium E417-HM-965. Description: MIC of CAIs in BHIB and TSB. It counts as cell-based. The following applies: Enterococcus faecium, read-out: MIC. Here is the method: as §1
The test system of the next series is gut microbiota. Set-up: species or system C57BL/6 mice. The following applies: mouse, in vivo, po, 10 mg/kg. On the procedure:
CAIs had no major impact on microbiota composition. An extremely promising and innovative feature of CAIs is their narrow spectrum of activity and their ability to decolonize VRE without harming the microbiome. […] To characterize the impact of CAIs administration on the composition of the gut microbiota we performed the following assay6. Female 12-week-old C57BL/6 mice (n=5 mice per group) were exposed to CAIs by oral gavage for 10 days (10 mg/kg daily). Twenty-four hours after last dose, mice were euthanized and cecal and colon contents were harvested. The microbiome was characterized using 16S rDNA gene sequencing. The microbiotas from treated mice were compared to those from a group of control mice. […] However, at the phylum level, we observed decrease in Firmicutes in CAIs treatment groups and likely due to decrease of enterococci as enterococcus is a large genus of the phylum Firmicutes. The Verrucomicrobia and Bacteroidetes remain constant while other phyla increase to fill the remaining percentage from Firmicute loss. […] Indeed, the use of traditional antibiotics can increase the selective pressure and contribute to the selection of other multi-drug-resistant organisms (Kofteridis D. et al., Int J Infect Dis 2009, 13, e313-315).

The subject of series [6] is vancomycin-resistant E. faecium. Description: Mouse model of GI colonization by VRE. The settings on record: 10 mg/kg by oral gavage for 8 days; feces as early as 3rd day. It counts as in vivo, C57BL/6 mice. An excerpt:
Feasibility in vivo study: AZM reduces VRE load in the intestines and faeces. The promising feature, and the specific and potent antimicrobial activity of CAIs, prompted us to evaluate the in vivo efficacy of AZM in our established mouse model of GI colonization by enterococci with features that mimic the antibiotic-induced enterococcal expansion observed in humans (Mohammad, H. et al., Int J Antimicrob Agents 2018, 51, 897-904; Abdelkhalek, A, et al., PLoS One 2018, 13, e0199710). We tested AZM (two clinical doses 10 and 20 mg/kg) in female 12-week-old C57BL/6 mice (n=5 mice per group) that were sensitized with ampicillin ([…] in drinking water) for 7 days to reduce the microbiota present in the gastrointestinal tract and colonized with 10^8 CFU/mL of vancomycin-resistant E. faecium.
We thought that the rapid absorption of AZM from the gastrointestinal tract would limit their exposure time to VRE present in the gastrointestinal tract.
Mice were treated for 8 days with 10 mg/kg of drugs by oral gavage.

A short description of series [7]: Preliminary in vivo toxicity study. The settings on record: 200 mg/kg twice daily (400 mg/kg daily) for three days.

The structures appear in SMILES notation. Read-outs that look alike come from different tables or passages of the source.

A word on the MIC: it is the lowest concentration found to suppress growth.

For `CCN[C@H]1C[C@H](C)S(=O)(=O)c2sc(S(N)(=O)=O)cc21` [Dorzolamide], the minimal inhibitory concentration (MIC) in series [1] is more than 256 µg/mL; in series [2] (BHIIB) it was more than 128 µg/mL; in series [2] (TSB, Table 5), 8 µg/mL; in series [3] (BHIB), more than 128 µg/mL; in series [3] (TSB, Table 5) it was 8 µg/mL; in series [4] (BHIB), more than 128 µg/mL. Besides, the minimal inhibitory concentration (MIC) was 8 µg/mL in series [4] (TSB, Table 5); 128 µg/mL in series [5] (E417HM965, BHIB); 16 µg/mL in series [5] (E417HM965, TSB, Table 5). Also, the “taxonomic structure and composition of microbiota” value with gut microbiota is “no major shift or change”.

`NS(=O)(=O)c1nnc(NCc2ccccc2C(F)(F)F)s1` [analog 8, 5-((2-(trifluoromethyl)benzyl)amino)-1,3,4-thiadiazole-2-sulfonamide]: the “reduction of VRE in the feces, cecum and ileum” value in series [6] is “superior to AZM and linezolid”. Further, in series [7], the “signs of distress or toxicity” value was “None of the mice exhibited any signs of distress or toxicity”.

Values taken from patent publication US12378211B2, “Carbonic anhydrase inhibitors and antibiotics against multidrug resistant bacteria” (Purdue Research Foundation, priority 2018, dated 2025).
